Legend:
NSCLC and GBM = conditions: Refs. 83-85; cited from earlier work
GBM patients = assay: Disease-free survival of PGS-stratified TCGA GBM patients treated with or without TMZ; type: in vivo, human; conditions: TCGA training cohort
Experimental: Clinical data on adjuvant chemotherapy (ACT) or TMZ administration for the TOGA training cohorts were retrieved from the NCI GDC data portal, and the Buffa hypoxia scores for each patient were retrieved from TOGA PanCancer Atlas through cBioPortal (Ref. 54). Differences in patient benefit from treatment across risk groups were assessed using one-tailed two-sample t-tests on unequal variances and Fisher's Exact Tests. Two-tailed two-sample t-tests on unequal variances assessed the correlation of PGS risk stratification with tumor hypoxia in NSCLC.

[1] = Refs. 3 and 11; cited from earlier work

Compound	efficacy in treating NSCLC and GBM (NSCLC and GBM)	average DFS time (GBM patients; high-risk progression GBM patients (GBM-PGS) treated with TMZ) [months]	average DFS time (GBM patients; low-risk progression GBM patients (GBM-PGS) treated with TMZ) [months]	penetration through the blood-brain barrier [1]
Cc1cc(Nc2nc(N[C@@H](C)c3ncc(F)cn3)ncc2Cl)n[nH]1 [AZD1480]	promising efficacy	–	–	–
NS(=O)(=O)c1cccc2c1C(=O)c1cccc(O)c1C2=O [LLL12]	promising efficacy	–	–	–
Cn1nnc2c(C(N)=O)ncn2c1=O [TMZ, Temozolomide]	–	10.80	16.52	efficient penetration

— patent publication US20230044602A1, “CANCER SIGNATURES, METHODS OF GENERATING CANCER SIGNATURES, AND USES THEREOF” (EDWARD VIA COLLEGE OF OSTEOPATHIC MEDICINE, priority 2019, published 2023)
